Entries after “also recorded” stand apart in the source; their conditions may differ.
Columns and labels:
[1] = tested on: hypothalamic cells of the apoaequorin-expressing mice; experiment: Intracellular calcium ion increase (aequorin luminescence), hypothalamus; assay type: cell-based, mouse; settings: for increase of intracellular calcium concentration in hypothalamic cells (RLU per second): 1 μmol/L peptide, added at 25 seconds; for luminescence (intracellular calcium ion increase) in hypothalamus: peptide at final concentrations of 1 μmol/L and 5 μmol/L
Experimental: (§1) A hypothalamus, pituitary gland, kidney, heart, blood vessel, or a portion of brain tissue is collected from transgenic mice systemically expressing apoaequorin (WO02/010371) produced by introducing an apoaequorin gene expression vector into fertilized eggs. The obtained hypothalamus, pituitary gland, kidney, heart, blood vessel, or brain tissue is cut finely into pieces, suspended in a medium containing coelenterazine, and then incubated to incorporate coelenterazine into the cells to form aequorin (a complex of apoaequorin and coelenterazine). Since aequorin luminesces upon binding to intracellular calcium ions, the relative luminescence level in cells before and after addition of a medium containing the peptide or a pharmaceutically acceptable salt thereof is measured in a luminometer every second over time and is used as an indicator of intracellular calcium ion concentration. Increase in the relative luminescence level due to addition of the peptide or pharmaceutically acceptable salt thereof confirms that the peptide or pharmaceutically acceptable salt thereof has the activity to increase intracellular calcium ion concentration.
(§2) Whether Peptides 1 to 8 synthesized in Example 2 have the activity of increasing intracellular calcium ion concentration was investigated using the organs of transgenic mice introduced with the apoaequorin gene and systemically expressing apoaequorin (hereinafter referred to as apoaequorin-expressing mice). In apoaequorin-expressing mouse cells, light is emitted when apoaequorin binds to a calcium ion in the presence of the luminescent substrate coelenterazine and thus the intracellular calcium ion concentration can be monitored. Patent Document (WO02/010371) discloses the method for producing apoaequorin-expressing mice, method for evaluating biologically active substances that use biological samples derived from the mice, and experimental results of evaluating biologically active peptides using the mouse organs as shown below. […] Therefore, apoaequorin-expressing mice can be used in the evaluation of the physiological activities of novel peptides.
(§3) Apoaequorin-expressing mice were produced according to the method disclosed in Reference Example 4 of Patent Document (WO02/010371). The apoaequorin-expressing mice were sacrificed, individual organs including thymus, hypothalamus, spleen, bone, aorta, heart, kidney, adrenal gland, pancreas, pituitary gland, uterus, medulla oblongata, and spinal cord were removed; and each of the organs was cut into small cubes of approximately 1 to 2 mm^3. Next, in 5-mL tubes (Rohren-Tubes; manufactured by Sarstedt, No. 55.476), three portions of each of the prepared organs were added to 50 μL of a 10 μmol/L solution of coelenterazine (manufactured by Molecular Probes) dissolved in RPMI 1640 medium, and these were cultured at 37° C. for three hours. After culturing, RPMI 1640 medium was added, and then Peptides 1 to 5 dissolved in RPMI 1640 medium were added 25 seconds after the addition of RPMI 1640 until each peptide had final concentrations of 1 μmol/L and of 5 μmol/L, and the relative luminescence levels were measured every second immediately after the addition of RPMI 1640 medium by using a luminometer (AutoLumat LB953, manufactured by Berthold).

[2] = tested on: pituitary cells of the apoaequorin-expressing mice; experiment: Intracellular calcium ion increase (aequorin luminescence), pituitary gland; assay type: cell-based, mouse; settings: for increase of intracellular calcium concentration in pituitary cells (RLU per second): added at 25 seconds; for luminescence (intracellular calcium ion increase) in pituitary gland: peptide at final concentrations of 1 μmol/L and 5 μmol/L
Experimental: as §1, §2, §3

[3] = tested on: medulla oblongata of apoaequorin-expressing mice; experiment: Intracellular calcium ion increase (aequorin luminescence), medulla oblongata; assay type: cell-based, mouse; settings: peptide at final concentrations of 1 μmol/L and 5 μmol/L
Experimental: as §1, §2, §3

[4] = tested on: nerve endings in the posterior pituitary gland of AVP-eGFP Tg rats; experiment: Continuous measurement of AVP-eGFP fluorescence in rat posterior pituitary gland (vasopressin release); assay type: cell-based; settings: peptide at final concentration of 10^−6 M in perfusate, last five minutes; control (basal) taken as 1
Excerpt: In transgenic (Tg) rats produced using a fusion gene, which is a vasopressin (arginine vasopressin: AVP) gene inserted with the enhanced green fluorescent protein (eGFP) gene, eGFP is expressed specifically in AVP neurons of the hypothalamus-pituitary system and their axons (Ueta et al., Endocrinology, 146, 406-413, 2005). Vasopressin secretion-promoting activity can be measured using pituitary gland excised from such AVP-eGFP Tg rats.
The pituitary gland is excised from an AVP-eGFP Tg rat and placed in a chamber of a perfusion apparatus filled with perfusate (140 mM NaCl, 5 mM KCl, 10 mM HEPES, 10 mM glucose, 1.2 mM KH2PO4, 1.2 mM MgCl2, 2 mM CaCl2; the pH and osmotic pressure are adjusted to 7.37 and 295 to 300 mOsml, respectively). Laser beam (488 nm) from an excitation light irradiation device (^161C; manufactured by Spectra Physics), is irradiated onto the posterior pituitary gland through an optical fiber (GIF625-100; manufactured by Thorlabs). The eGFP fluorescent light as a result of excitation at nerve endings in the posterior pituitary gland is collected by a phototube (R6249HA; Hamamatsu Photonics) through another optical fiber. After conversion into an electric signal, it can be amplified with an amplifier (C7246; manufactured by Hamamatsu Photonics) to observe the change in the eGFP fluorescence. The amount of change serves as an indicator for the amount of change of AVP-eGFP present in the pituitary gland, and the vasopressin secretion-promoting activity of the VGF-related peptide or a pharmaceutically acceptable salt thereof can be measured.
Specifically, the recording time is set to 10 minutes. As a control (basal), only the perfusate is administered in the first five minutes. Then, a mixture of the perfusate and the VGF-related peptide or a pharmaceutically acceptable salt thereof prepared to have a final concentration of 10^−6 M is administered in the last five minutes. The amount of vasopressin secreted from the pituitary gland can be measured by observing changes in the eGFP fluorescence. […]

[5] = tested on: thymus of apoaequorin-expressing mice; experiment: Intracellular calcium ion increase (aequorin luminescence), thymus; assay type: cell-based, mouse; settings: peptide at final concentrations of 1 μmol/L and 5 μmol/L
Experimental: as §1, §2
(§4) Apoaequorin-expressing mice were produced according to the method disclosed in Reference Example 4 of Patent Document (WO02/010371). […] After culturing, RPMI 1640 medium was added, and then Peptides 1 to 5 dissolved in RPMI 1640 medium were added 25 seconds after the addition of RPMI 1640 until each peptide had final concentrations of 1 μmol/L and of 5 μmol/L, and the relative luminescence levels were measured every second immediately after the addition of RPMI 1640 medium by using a luminometer (AutoLumat LB953, manufactured by Berthold).

[6] = tested on: pancreatic cells of the apoaequorin-expressing mice; experiment: Intracellular calcium ion increase (aequorin luminescence), pancreas; assay type: cell-based, mouse; settings: for luminescence (intracellular calcium ion increase) in pancreas: peptide at final concentrations of 1 μmol/L and 5 μmol/L
Experimental: as §1
Whether Peptides 1 to 8 synthesized in Example 2 have the activity of increasing intracellular calcium ion concentration was investigated using the organs of transgenic mice introduced with the apoaequorin gene and systemically expressing apoaequorin (hereinafter referred to as apoaequorin-expressing mice). In apoaequorin-expressing mouse cells, light is emitted when apoaequorin binds to a calcium ion in the presence of the luminescent substrate coelenterazine and thus the intracellular calcium ion concentration can be monitored. Patent Document (WO02/010371) discloses the method for producing apoaequorin-expressing mice, method for evaluating biologically active substances that use biological samples derived from the mice, and experimental results of evaluating biologically active peptides using the mouse organs as shown below. […]

[7] = tested on: cardiac cells of the apoaequorin-expressing mice; experiment: Intracellular calcium ion increase (aequorin luminescence), heart; assay type: cell-based, mouse
Experimental: as §1, §2, §3

[8] = tested on: aortic cells of the apoaequorin-expressing mice; experiment: Intracellular calcium ion increase (aequorin luminescence), aorta; assay type: cell-based, mouse
Experimental: as §1, §2, §4

[9] = tested on: spleen of apoaequorin-expressing mice; experiment: Intracellular calcium ion increase (aequorin luminescence), spleen; assay type: cell-based, mouse; settings: peptide at final concentrations of 1 μmol/L and 5 μmol/L
Experimental: as §1, §2, §4

[10] = 1 μmol/L peptide, added at 25 seconds
[11] = peptide at final concentrations of 1 μmol/L and 5 μmol/L

Row | Substance | increase of intracellular calcium concentration in hypothalamic cells (RLU per second) [1] | luminescence (intracellular calcium ion increase) in hypothalamus [1] | increase of intracellular calcium concentration in pituitary cells (RLU per second) ([2]; 5 μmol/L peptide) | luminescence (intracellular calcium ion increase) in pituitary gland [2] | luminescence (intracellular calcium ion increase) in medulla oblongata [3] | vasopressin release from nerve endings in the posterior pituitary gland (change in eGFP fluorescence) [4] | luminescence (intracellular calcium ion increase) in thymus [5] | increase of intracellular calcium concentration in pituitary cells (RLU per second) ([2]; 1 μmol/L peptide) | luminescence (intracellular calcium ion increase) in pancreas [6] | increase of intracellular calcium concentration in cardiac cells (RLU per second) [7, 10] | luminescence (intracellular calcium ion increase) in heart [7, 11] | increase of intracellular calcium concentration in aortic cells (RLU per second) [8, 10] | luminescence (intracellular calcium ion increase) in aorta [8, 11] | luminescence (intracellular calcium ion increase) in spleen [9] | increase of intracellular calcium concentration in pancreatic cells (RLU per second) ([6]; 5 μmol/L peptide, added at 25 seconds)
1 | Peptide 1: amino acid sequence at position 177 to 206 in human VGF (QQETAAAETETRTHTLTRVNLESPGPERVW; synthetic Peptide 1, VGF-related peptide, human VGF positions 177-206) | increase of intracellular calcium concentration | luminescence was observed | increase of intracellular calcium concentration | luminescence was observed | luminescence was observed | reduced eGFP fluorescence; also recorded: vasopressin release | luminescence was observed |  |  |  |  |  |  |  | 
2 | Peptide 4: amino acid sequence at position 533 to 543 in human VGF (EEDEVYPPGPY; synthetic Peptide 4, VGF-related peptide, human VGF positions 533-543) | increase of intracellular calcium concentration | luminescence was observed |  | luminescence was observed |  |  |  | increase of intracellular calcium concentration | luminescence was observed |  |  |  |  |  | 
3 | Peptide 7: amino acid sequence at position 400 to 417 in human VGF (QNALLFAEEEDGEAGAED; synthetic Peptide 7, VGF-related peptide, human VGF positions 400-417) | increase of intracellular calcium concentration | luminescence was observed |  | luminescence was observed |  |  |  | increase of intracellular calcium concentration |  | increase of intracellular calcium concentration | luminescence was observed | increase of intracellular calcium concentration | luminescence was observed | luminescence was observed | 
4 | Peptide 10: amino acid sequence at position 485 to 503 in human VGF (NAPPEPVPPPRAAPAPTHV; synthetic Peptide 10, VGF-related peptide, human VGF positions 485-503) | increase of intracellular calcium concentration | luminescence was observed |  | luminescence was observed |  |  |  | increase of intracellular calcium concentration | luminescence was observed |  |  |  |  |  | increase of intracellular calcium concentration
5 | Peptide 11: amino acid sequence at position 533 to 552 in human VGF (EEDEVYPPGPYHPFPNYIRP; synthetic Peptide 11, VGF-related peptide, human VGF positions 533-552) | increase of intracellular calcium concentration | luminescence was observed | increase of intracellular calcium concentration | luminescence was observed |  | reduced eGFP fluorescence; also recorded: vasopressin release |  |  |  |  |  |  |  |  | 
6 | Peptide 12: amino acid sequence at position 556 to 585 in rat VGF (TLQPPASSRRRHFHHALPPARHHPDLEAQA; synthetic Peptide 12, VGF-related peptide, rat VGF positions 556-585) |  |  | increase of intracellular calcium concentration | luminescence was observed |  | reduced eGFP fluorescence; also recorded: vasopressin release |  |  |  |  |  |  |  |  | 
